The record followed here is patent US20230270881A1, “ONCOGENIC TRIM37 IS A TARGETABLE EPIGENETIC DRIVER OF METASTASIS AND LINKS CHEMORESISTANCE AND METASTATIC FATE IN TRIPLE-NEGATIVE BREAST CANCER” (University of Virginia Patent Foundation, priority 2020, published 2023).

For one assay, the system named is TRIM37. The assay is described as follows: Immunoblotting of TRIM37 in treated cells. The format is cell-based, human. Here is the method: Immunoblotting. Cell extracts were prepared by lysing cell pellet in RIPA buffer supplemented with 1 mM sodium ortho-vanadate and 10 mM PMSF. To prepare protein extract from mouse tissue, it was homogenized in lysis buffer (1% SDS, 1 mM sodium ortho-vanadate, 10 mM Tris pH 7.4 and protease inhibitor). Immunoblots were probed using antibodies against TRIM37 (Abcam), PARP (Cell Signaling Technology), p21 (Cell Signaling Technology), γ-ph-H2AX (Cell Signaling Technology), RAD51C (Invitrogen), ph-ATM (Cell Signaling Technology), ph-STAT1 (Cell Signaling Technology), ph-STAT3 (Cell Signaling Technology), ph-STAT5 (Cell Signaling Technology), BIM (Abcam), FOLR1 (R&D) and α-tubulin (Invitrogen).
Background: In western blotting, separated proteins are transferred to a membrane and probed.

The subject of the next assay is HCC1806 tumors. As to the kind of experiment: NSG tumor xenograft, Dox-induced TRIM37 upregulation. The format is in vivo. The following applies: mice bearing HCC1806RR subcutaneous tumors, 2 mg/kg Dox. Here is the method:
(§1) NSG tumor xenograft studies. All animal procedures were conducted under the accordance of the University of Virginia IACUC with approved protocol (4112 and 4222). For different cell lines, weight and aged matched female NSG mice were injected subcutaneously with 2×10^6 TNBC cells in their right flank with indicated cell line in matrigel. 2×10^6 HCC1806RR or 231-2b were injected in 100 µl volume. For Dox-induced TRIM37 upregulation studies in tumor, mice bearing ~200 mm^3 HCC1806 tumors weight matched animals were randomly assigned into groups and injected with 2 mg/kg Dox. Tumors were harvested 24 hrs. following Dox treatment. For smart nanoparticles efficiency in vivo, mice bearing ~200 mm^3 231-2b tumors weight matched animals were randomly assigned into groups and injected with control or smart nanoparticles. At the endpoint, RNA and protein lysates were prepared from isolated tumors and analyzed by western blotting.

A further assay has as its system 231-2b tumors. As to the kind of experiment: NSG tumor xenograft, smart nanoparticles with or without Dox. The format is in vivo, NSG mice. The following applies: 231-2b xenografts; 1.2 mg/kg nanoparticles intra-tumor every three days for 18 days; 2 mg/kg Dox two doses. Here is the method:
as §1
To investigate the outcome of TRIM37 targeting in clinical settings, we challenged 231-2b-derived xenografts with smart nanoparticles in combination with chemotherapy. When tumors reached the size of ~50 mm^3, animals received two doses of either 2 mg/kg Dox or vehicle (FIG. 7J). Furthermore, within each group, animals were randomly administered 1.2 mg/kg (~4×10^7nanoparticles) of smart or control nanoparticles intra-tumor every three days for 18 days (FIG. 7J).

Take `COc1cccc2c1C(=O)c1c(O)c3c(c(O)c1C2=O)C[C@@](O)(C(=O)CO)C[C@@H]3O[C@H]1C[C@H](N)[C@H](O)[C@H](C)O1` [doxorubicin]: the TRIM37 expression result in the assay on TRIM37 (MCF7 or MCF10A cells) was “no increase”; with TRIM37 (MDA MB 468, HCC1806 and MDA MB 231 cells) it was “dose- and time-dependent upregulation”. For the same molecule, the “TRIM37 in xenograft tumors” value with HCC1806 tumors was “upregulated TRIM37”; in the assay on HCC1806 tumors (listed as dox), “increased TRIM37 level”. In the assay on 231-2b tumors, the tumor growth entry is “significantly attenuated”.
